What was measured:
[1] = biological target: Calcium/calmodulin-dependent protein kinase type II subunit beta (Homo sapiens) (UniProt Q13554); test: Inhibition of CaMK2b labeling at conserved Lys2 (DLKPENLLLASK) in human PBMC at 1 uM
[2] = biological target: Serine/threonine-protein kinase SMG1 (Homo sapiens) (UniProt Q96Q15); test: Inhibition of SMG1 ATP binding site (DTVTIHSVGGTITILPTKTKPK) in human PBMC at 1 uM
[3] = biological target: Serine/threonine-protein kinase 25 (Homo sapiens) (UniProt O00506); test: Inhibition of YSK1 conserved Lys2 (DIKAANVLLSEQGDVK) in human PBMC at 1 uM
[4] = biological target: 5'-AMP-activated protein kinase catalytic subunit alpha-1 (Homo sapiens) (UniProt Q13131); test: Inhibition of AMPKa1 labeling at conserved Lys2 (DLKPENVLLDAHMNAK) in human PBMC at 1 uM
[5] = biological target: T1, Inhibitor of nuclear factor kappa-B kinase subunit epsilon (Homo sapiens) (UniProt Q14164); test: Inhibition of IKKe conserved Lys1 (SGELVAVKVFNTTSYLRPR) in human PBMC at 0.1 uM
T1 sequence (whole entry): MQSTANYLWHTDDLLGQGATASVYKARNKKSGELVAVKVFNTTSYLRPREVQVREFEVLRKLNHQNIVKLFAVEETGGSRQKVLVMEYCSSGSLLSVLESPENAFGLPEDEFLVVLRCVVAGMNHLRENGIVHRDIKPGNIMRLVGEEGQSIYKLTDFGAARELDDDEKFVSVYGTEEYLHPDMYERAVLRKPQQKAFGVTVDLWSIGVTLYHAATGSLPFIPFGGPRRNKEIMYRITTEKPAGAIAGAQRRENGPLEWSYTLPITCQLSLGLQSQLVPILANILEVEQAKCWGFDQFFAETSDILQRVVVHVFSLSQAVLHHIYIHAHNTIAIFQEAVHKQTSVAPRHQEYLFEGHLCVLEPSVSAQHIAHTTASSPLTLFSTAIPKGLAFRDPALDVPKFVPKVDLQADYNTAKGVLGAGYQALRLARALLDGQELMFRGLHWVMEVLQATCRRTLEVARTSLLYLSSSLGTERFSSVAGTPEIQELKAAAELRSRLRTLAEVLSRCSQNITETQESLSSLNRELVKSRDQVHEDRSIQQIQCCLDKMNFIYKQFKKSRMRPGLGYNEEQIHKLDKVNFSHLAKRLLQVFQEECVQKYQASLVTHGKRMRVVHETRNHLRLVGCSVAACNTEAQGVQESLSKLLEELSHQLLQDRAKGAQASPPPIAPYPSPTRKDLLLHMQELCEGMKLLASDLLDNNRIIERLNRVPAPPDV

[6] = biological target: Kinase suppressor of Ras 2 (Homo sapiens) (UniProt Q6VAB6); test: Inhibition of KSR2 activation Loop (SKNVFYDNGK) in human PBMC at 1 uM
[7] = biological target: RAC-alpha serine/threonine-protein kinase (Homo sapiens) (UniProt P31749); test: Inhibition of AKT1 labeling at ATP binding site (GTFGKVILVK) in human PBMC at 1 uM
[8] = biological target: 5'-AMP-activated protein kinase catalytic subunit alpha-2 (Homo sapiens) (UniProt P54646); test: Inhibition of AMPKa2 labeling at conserved Lys1 (VAVKILNR) in human PBMC at 0.1 uM
[9] = Inhibition of GCK conserved Lys2 (DIKGANLLLTLQGDVK) in human PBMC at 1 uM
[10] = biological target: Serine/threonine-protein kinase tousled-like 1 (Homo sapiens) (UniProt Q9UKI8); test: Inhibition of TLK1 conserved Lys2 (YLNEIKPPIIHYDLKPGNILLVDGTACGEIK) in human PBMC at 0.1 uM
[11] = biological target: Serine/threonine-protein kinase WNK3 (Homo sapiens) (UniProt Q9BYP7); test: Inhibition of Wnk3 conserved Lys2 (DLKCDNIFITGPTGSVK) in human PBMC at 1 uM
[12] = biological target: Tyrosine-protein kinase CSK (Homo sapiens) (UniProt P41240); test: Inhibition of CSK labeling at conserved Lys2 (VSDFGLTKEASSTQDTGKLPVK) in human PBMC at 0.1 uM
[13] = biological target: Protein kinase C beta type (Homo sapiens) (UniProt P05771); test: Inhibition of PKCb conserved Lys2 (DLKLDNVMLDSEGHIK) in human PBMC at 1 uM
[14] = biological target: Myosin light chain kinase, smooth muscle (Homo sapiens) (UniProt Q15746); test: Inhibition of smMLCK conserved Lys2 (QGIVHLDLKPENIMCVNK) in human PBMC at 1 uM
[15] = biological target: Myosin light chain kinase, smooth muscle (Homo sapiens) (UniProt Q15746); test: Inhibition of smMLCK conserved Lys1 (VWAGKFFK) in human PBMC at 1 uM
[16] = biological target: Inhibitor of nuclear factor kappa-B kinase subunit alpha (Homo sapiens) (UniProt O15111); test: Inhibition of IKKa conserved Lys2 (DLKPENIVLQDVGGK) in human PBMC at 1 uM
[17] = biological target: Inhibitor of nuclear factor kappa-B kinase subunit alpha (Homo sapiens) (UniProt O15111); test: Inhibition of IKKa conserved Lys2 (DLKPENIVLQDVGGK) in human PBMC at 0.1 uM
[18] = biological target: STE20-like serine/threonine-protein kinase (Homo sapiens) (UniProt Q9H2G2); test: Inhibition of SLK conserved Lys1 (AQNKETSVLAAAKVIDTK) in human PBMC at 1 uM
[19] = biological target: Serine/threonine-protein kinase B-raf (Homo sapiens) (UniProt P15056); test: Inhibition of BRAF labeling at conserved Lys2 (DLKSNNIFLHEDLTVK) in human PBMC at 0.1 uM
[20] = biological target: Ribosomal protein S6 kinase beta-2 (Homo sapiens) (UniProt Q9UBS0); test: Inhibition of p70S6Kb ATP binding site (GGYGKVFQVR) in human PBMC at 1 uM
[21] = biological target: Serine/threonine-protein kinase WNK1 (Homo sapiens) (UniProt Q9H4A3); test: Inhibition of Wnk1 ATP binding site (GSFKTVYK) in human PBMC at 0.1 uM
[22] = biological target: Serine/threonine-protein kinase 26 (Homo sapiens) (UniProt Q9P289); test: Inhibition of MST4 conserved Lys2 (DIKAANVLLSEQGDVK) in human PBMC at 0.1 uM
[23] = biological target: Serine/threonine-protein kinase WNK2 (Homo sapiens) (UniProt Q9Y3S1); test: Inhibition of Wnk2 ATP binding site (GSFKTVYK) in human PBMC at 0.1 uM
[24] = biological target: Calcium/calmodulin-dependent protein kinase type 1D (Homo sapiens) (UniProt Q8IU85); test: Inhibition of CaMK1d labeling at conserved Lys2 (DLKPENLLYYSQDEESK) in human PBMC at 1 uM
[25] = biological target: Cyclin-dependent kinase 5 (Homo sapiens) (UniProt Q00535); test: Inhibition of CDK5 labeling at conserved Lys2 (DLKPQNLLINR) in human PBMC at 1 uM

Sequence of Inhibitor of nuclear factor kappa-B kinase subunit alpha (Homo sapiens) (O15111 whole entry): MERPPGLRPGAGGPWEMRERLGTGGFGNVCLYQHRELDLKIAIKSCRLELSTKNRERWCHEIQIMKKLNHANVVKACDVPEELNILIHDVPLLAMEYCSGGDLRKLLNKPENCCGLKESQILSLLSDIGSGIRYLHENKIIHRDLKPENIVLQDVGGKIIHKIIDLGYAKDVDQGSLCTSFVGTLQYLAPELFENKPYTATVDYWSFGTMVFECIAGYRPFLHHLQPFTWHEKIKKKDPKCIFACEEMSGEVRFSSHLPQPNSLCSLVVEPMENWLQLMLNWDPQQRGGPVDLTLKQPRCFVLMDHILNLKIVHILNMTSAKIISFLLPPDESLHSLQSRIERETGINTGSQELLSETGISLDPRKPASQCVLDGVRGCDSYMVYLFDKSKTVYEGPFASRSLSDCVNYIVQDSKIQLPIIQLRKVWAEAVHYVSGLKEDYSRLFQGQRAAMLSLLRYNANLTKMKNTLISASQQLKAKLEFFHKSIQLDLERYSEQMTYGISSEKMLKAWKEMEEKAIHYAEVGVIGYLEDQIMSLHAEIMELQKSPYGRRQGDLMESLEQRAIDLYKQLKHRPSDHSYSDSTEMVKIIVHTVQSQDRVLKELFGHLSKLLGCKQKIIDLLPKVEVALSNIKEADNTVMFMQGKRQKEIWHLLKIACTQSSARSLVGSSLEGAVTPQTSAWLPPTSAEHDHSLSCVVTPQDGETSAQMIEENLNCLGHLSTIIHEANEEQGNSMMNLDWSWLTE
Sequence of Myosin light chain kinase, smooth muscle (Homo sapiens) (Q15746 whole entry): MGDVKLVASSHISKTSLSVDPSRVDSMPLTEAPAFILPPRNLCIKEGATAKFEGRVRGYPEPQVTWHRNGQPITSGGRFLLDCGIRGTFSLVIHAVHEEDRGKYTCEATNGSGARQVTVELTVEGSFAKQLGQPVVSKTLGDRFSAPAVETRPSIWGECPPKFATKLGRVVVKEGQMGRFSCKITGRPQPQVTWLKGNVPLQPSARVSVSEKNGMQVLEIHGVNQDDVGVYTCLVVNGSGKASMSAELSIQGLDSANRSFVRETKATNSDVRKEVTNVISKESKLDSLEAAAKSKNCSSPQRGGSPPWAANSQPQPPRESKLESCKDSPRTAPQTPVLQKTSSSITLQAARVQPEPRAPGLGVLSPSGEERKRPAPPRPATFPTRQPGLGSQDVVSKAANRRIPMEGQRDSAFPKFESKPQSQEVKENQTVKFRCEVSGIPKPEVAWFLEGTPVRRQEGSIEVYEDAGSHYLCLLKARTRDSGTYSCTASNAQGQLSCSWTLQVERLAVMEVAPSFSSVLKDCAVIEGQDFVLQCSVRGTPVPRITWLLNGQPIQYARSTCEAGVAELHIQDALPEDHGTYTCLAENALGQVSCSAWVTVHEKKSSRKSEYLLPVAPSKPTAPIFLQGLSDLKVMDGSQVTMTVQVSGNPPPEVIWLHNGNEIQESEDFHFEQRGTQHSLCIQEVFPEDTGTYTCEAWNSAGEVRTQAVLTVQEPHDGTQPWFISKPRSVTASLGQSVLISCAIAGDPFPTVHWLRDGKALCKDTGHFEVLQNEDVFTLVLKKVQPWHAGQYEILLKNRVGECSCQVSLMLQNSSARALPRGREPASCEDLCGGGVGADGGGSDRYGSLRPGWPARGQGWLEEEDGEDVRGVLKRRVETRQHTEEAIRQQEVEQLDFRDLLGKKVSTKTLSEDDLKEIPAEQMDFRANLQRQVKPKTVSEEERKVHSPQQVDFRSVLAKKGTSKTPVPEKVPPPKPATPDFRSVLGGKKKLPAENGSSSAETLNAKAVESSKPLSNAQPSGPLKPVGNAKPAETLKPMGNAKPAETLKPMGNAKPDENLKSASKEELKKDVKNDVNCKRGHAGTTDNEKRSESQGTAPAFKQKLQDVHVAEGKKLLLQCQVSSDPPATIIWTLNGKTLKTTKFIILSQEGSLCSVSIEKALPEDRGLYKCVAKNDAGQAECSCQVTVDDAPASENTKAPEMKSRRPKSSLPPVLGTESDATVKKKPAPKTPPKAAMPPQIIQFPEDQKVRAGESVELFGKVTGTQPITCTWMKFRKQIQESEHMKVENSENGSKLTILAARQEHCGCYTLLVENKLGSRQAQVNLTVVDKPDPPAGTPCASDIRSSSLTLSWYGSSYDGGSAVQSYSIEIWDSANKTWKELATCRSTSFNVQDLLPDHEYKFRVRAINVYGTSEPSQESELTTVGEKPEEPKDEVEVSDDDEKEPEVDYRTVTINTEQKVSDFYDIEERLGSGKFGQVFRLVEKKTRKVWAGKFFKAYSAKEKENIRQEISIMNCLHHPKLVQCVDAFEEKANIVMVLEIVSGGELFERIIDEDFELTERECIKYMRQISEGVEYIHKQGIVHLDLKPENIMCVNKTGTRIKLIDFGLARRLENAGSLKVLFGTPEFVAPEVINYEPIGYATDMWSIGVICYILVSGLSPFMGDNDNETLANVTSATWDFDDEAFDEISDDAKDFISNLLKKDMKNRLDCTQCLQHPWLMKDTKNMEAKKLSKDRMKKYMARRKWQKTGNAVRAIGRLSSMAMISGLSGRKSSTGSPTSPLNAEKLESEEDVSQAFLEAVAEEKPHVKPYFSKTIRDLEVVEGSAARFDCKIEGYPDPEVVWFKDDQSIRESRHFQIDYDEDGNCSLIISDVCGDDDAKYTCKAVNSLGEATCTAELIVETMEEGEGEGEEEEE
Sequence of Serine/threonine-protein kinase WNK3 (Homo sapiens) (Q9BYP7 whole entry): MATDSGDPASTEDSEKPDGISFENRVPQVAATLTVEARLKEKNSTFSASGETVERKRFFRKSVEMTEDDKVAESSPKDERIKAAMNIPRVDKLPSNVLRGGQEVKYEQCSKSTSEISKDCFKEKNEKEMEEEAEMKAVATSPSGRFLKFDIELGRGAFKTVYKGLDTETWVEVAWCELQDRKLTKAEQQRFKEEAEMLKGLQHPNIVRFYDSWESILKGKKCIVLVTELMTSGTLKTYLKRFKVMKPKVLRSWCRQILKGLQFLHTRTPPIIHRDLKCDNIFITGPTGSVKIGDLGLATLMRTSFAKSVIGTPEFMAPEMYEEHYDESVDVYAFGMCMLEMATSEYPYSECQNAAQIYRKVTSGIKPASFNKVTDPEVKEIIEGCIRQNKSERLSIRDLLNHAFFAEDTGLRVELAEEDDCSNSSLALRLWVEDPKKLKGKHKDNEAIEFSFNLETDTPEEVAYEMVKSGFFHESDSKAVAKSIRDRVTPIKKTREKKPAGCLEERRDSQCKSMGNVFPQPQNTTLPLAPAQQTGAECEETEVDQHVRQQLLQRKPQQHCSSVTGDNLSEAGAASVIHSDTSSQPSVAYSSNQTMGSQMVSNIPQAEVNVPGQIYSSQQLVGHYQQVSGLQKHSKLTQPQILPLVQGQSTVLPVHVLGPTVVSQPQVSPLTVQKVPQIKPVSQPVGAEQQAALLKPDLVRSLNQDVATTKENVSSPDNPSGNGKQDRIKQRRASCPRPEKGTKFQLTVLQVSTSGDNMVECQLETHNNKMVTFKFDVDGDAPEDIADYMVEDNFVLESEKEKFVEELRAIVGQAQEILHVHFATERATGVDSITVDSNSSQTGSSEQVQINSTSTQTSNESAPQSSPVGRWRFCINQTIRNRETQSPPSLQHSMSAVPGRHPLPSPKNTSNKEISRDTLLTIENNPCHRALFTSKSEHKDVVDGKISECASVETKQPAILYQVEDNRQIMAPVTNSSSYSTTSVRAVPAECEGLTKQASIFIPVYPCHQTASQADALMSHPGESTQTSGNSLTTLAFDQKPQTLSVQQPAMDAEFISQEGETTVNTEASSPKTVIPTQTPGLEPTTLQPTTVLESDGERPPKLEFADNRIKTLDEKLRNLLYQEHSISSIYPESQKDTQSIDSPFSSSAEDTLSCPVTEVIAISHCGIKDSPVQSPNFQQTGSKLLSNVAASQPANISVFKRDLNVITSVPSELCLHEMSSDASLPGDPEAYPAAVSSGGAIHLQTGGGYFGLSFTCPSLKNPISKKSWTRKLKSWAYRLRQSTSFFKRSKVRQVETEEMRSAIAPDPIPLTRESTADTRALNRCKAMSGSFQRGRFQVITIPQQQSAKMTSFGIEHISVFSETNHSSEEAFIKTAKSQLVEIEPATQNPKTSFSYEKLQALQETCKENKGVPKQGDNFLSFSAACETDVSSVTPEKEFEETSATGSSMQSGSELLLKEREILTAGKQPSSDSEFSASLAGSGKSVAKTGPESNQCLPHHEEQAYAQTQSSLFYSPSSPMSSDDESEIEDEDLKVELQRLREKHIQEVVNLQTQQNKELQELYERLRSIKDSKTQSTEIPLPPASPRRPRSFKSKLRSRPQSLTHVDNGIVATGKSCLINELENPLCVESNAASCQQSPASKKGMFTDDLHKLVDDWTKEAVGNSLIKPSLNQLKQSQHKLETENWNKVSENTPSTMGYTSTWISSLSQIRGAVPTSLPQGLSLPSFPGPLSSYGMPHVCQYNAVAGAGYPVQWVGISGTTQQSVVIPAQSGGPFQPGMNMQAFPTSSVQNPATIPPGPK
Sequence of Calcium/calmodulin-dependent protein kinase type II subunit beta (Homo sapiens) (Q13554 whole entry): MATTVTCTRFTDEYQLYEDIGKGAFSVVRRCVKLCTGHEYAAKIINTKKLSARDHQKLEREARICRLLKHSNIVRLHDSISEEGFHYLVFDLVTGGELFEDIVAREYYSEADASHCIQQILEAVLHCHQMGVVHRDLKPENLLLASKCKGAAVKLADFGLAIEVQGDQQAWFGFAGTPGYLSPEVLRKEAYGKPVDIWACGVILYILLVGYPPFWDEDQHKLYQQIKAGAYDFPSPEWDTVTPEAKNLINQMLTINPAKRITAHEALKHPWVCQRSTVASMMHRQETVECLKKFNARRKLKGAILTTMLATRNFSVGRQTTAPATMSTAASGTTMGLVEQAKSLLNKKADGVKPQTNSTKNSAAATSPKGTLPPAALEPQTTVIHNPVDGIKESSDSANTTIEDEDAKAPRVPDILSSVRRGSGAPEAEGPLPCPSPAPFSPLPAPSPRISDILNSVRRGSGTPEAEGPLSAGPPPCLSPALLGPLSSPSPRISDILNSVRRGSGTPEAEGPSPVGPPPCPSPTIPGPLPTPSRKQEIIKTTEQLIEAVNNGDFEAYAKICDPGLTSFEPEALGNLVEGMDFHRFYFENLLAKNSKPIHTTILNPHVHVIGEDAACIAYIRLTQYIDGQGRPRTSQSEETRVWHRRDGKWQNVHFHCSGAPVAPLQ

CC(C)n1cc(-c2cc(-c3ccc(CN4CCOCC4)cc3)cnc2N)nn1 showed an inhibition [1] of -0.4%, an inhibition [2] of -8.2% and an inhibition [3] of 9.9%. For the same compound, the inhibition [4] was 17.5%, the inhibition [5] was 6.2% and the inhibition [6] was 20.1%. It also gave an inhibition [7] of 27.4%, an inhibition [8] of 7.7% and an inhibition [9] of 26.2%. The inhibition [10] was -3.1%, the inhibition [11] was 2.2% and the inhibition [12] was -9.6%. The inhibition [13] was -7.4%, the inhibition [14] was 3.2% and the inhibition [15] was 26%. The inhibition [16] was -1.2%, the inhibition [17] was -7.4% and the inhibition [18] was 0.3%. The inhibition [19] was 12.5%, the inhibition [20] was -7.8% and the inhibition [21] was 18.3%. The inhibition [22] was 0.5%, the inhibition [23] was 18.3% and the inhibition [24] was -0.9%. The inhibition [25] was 8.9%.

From ChEMBL document CHEMBL4043168, “The design and SAR of a novel series of 2-aminopyridine based LRRK2 inhibitors” (Bioorg Med Chem Lett, 2017)
